Data as given in US7153495B2, “Fragrance friendly and cost effective antiperspirant actives and method of making the same” (Reheis, Inc., priority 2004, dated 2006).

What was measured:
[1] = test system: human volunteers; test: Controlled Hot Room Gravimetric Test of antiperspirant efficacy, suspension roll-on; assay type: in vivo; conditions: for Sweat reduction: anhydrous suspension roll-on, about 20% salt on anhydrous basis, hot room
Procedure: Aluminum zirconium octa salt of example 1 was tested for antiperspirant efficacy against most widely used aluminum zirconium tetrachlorohydrex in a suspension roll-on formulation using the standard hot room procedure. In the standard hot room procedure, human volunteers are subjected to thermal stress and gravimetric determination of the perspiration produced under the thermal stress with and without antiperspirant product applications are made. The data is subjected to analysis of covariance method described by Murphy and Levine (T. D. Murphy, et al., Analysis of Antiperspirant Efficacy Test Results, Journal of the Society of Cosmetic Chemists, Vol. 42, May 1991, pp. 167–197) and compared for percent sweat reduction capacity. Antiperspirancy tests were conducted by an outside independent lab employing “Controlled Hot Room Gravimetric Test” in conformance with FDA guidelines.
The anhydrous suspension roll-ons were prepared using an aluminum zirconium salt concentration of about 20% on an anhydrous basis (about 25% on weight basis) and approximate concentration of other ingredients were Dow Coming 245, 70.5%, Bentone 38, 2.70%, SDA Alcohol 40 (95% alcohol+5% water) 1.8%.
Aluminum zirconium tetrachlorohydrex powder used for comparison had the following chemical analysis. % Al 14.8, % Zr 14.5, % Cl 18.36, % Glycine 11.7, Al/Zr atomic ratio 3.52 and M/Cl atomic ratio of 1.36, % A.S. 77.46.
Sweat reduction values for the octa and tetra salts were 48% and 52% respectively. Results of this study established that amino acid free cost effective aluminum zirconium salts could be prepared without sacrificing efficacy.

[2] = Fragrance compatibility study (colour formation with fragrances, Macbeth Color Spectrophotometer and visual); assay type: physicochemical; conditions: for ΔRG @ 45° C., Average / ΔYB @ 45° C., Average: average of 14 fragrances; for ΔRG @ 45° C., Average / ΔYB @ 45° C., Average / ΔRG @ 45° C. / ΔYB @ 45° C.: four weeks at 45° C.; for ΔRG @ 45° C. / ΔYB @ 45° C.: 0.75% perfume, 20% active
Procedure: It is known that fragrances in antiperspirants can discolor over time due to the acidic nature and high transition metals concentration especially Fe, Cr, Co, Mn, Cu, and Ni. It is also known that glycine can initiate Schiff base reaction with aldehydes present in fragrances. […] Fragrance dispersions were prepared as follows: 0.75% perfume, 1.0% Arlasolve 200, 20% antiperspirant active (on an anhydrous basis), q.s. DI water. Samples were stored at 45° C. for four weeks and were analyzed for color visually as well as using Macbeth Color Spectrophotometer. Aluminum zirconium tetrachlorohydrex was compared against aluminum zirconium penta and octa salts of Examples 1 and 2. Color was measured as ΔYB (yellow blue) and ΔRG (red green) for all the fourteen fragrances and three actives.

Substance | Sweat reduction ([1]; 37 female subjects) [%] | ΔRG @ 45° C., Average [2] | ΔYB @ 45° C., Average [2] | ΔRG @ 45° C. ([2]; fragrance AC 10278/498988) | ΔYB @ 45° C. ([2]; fragrance AC 10278/498988) | ΔRG @ 45° C. ([2]; fragrance Bell J-8381) | ΔYB @ 45° C. ([2]; fragrance Bell J-8381) | ΔRG @ 45° C. ([2]; fragrance Drom99-920) | ΔYB @ 45° C. ([2]; fragrance Drom99-920) | ΔRG @ 45° C. ([2]; fragrance FFS 52847) | ΔYB @ 45° C. ([2]; fragrance FFS 52847) | ΔRG @ 45° C. ([2]; fragrance Firm. 430–507) | ΔYB @ 45° C. ([2]; fragrance Firm. 430–507) | ΔRG @ 45° C. ([2]; fragrance Noville AN 119738) | ΔYB @ 45° C. ([2]; fragrance Noville AN 119738) | ΔRG @ 45° C. ([2]; fragrance Q-26238) | ΔYB @ 45° C. ([2]; fragrance Q-26238) | ΔRG @ 45° C. ([2]; fragrance Q-26239) | ΔYB @ 45° C. ([2]; fragrance Q-26239) | ΔRG @ 45° C. ([2]; fragrance Q-26240) | further results
aluminum zirconium octachloro-hydrate [Example 1] | 48 | 6.84 | 8.2 | 1.86 | 3.77 | 2.88 | 5.56 | 2.28 | 4.45 | 6.37 | 6.76 | 12.82 | 14.63 | 11.91 | 12.23 | 7.45 | 8.49 | 6.65 | 9.40 | 4.07 | adverse experiences ([1]; 37 female subjects, suspension roll-on): No adverse experiences; difference in the reduction in perspiration versus aluminum zirconium tetrachlorohydrex ([1]; 37 female subjects, p=0.127): no statistically significant difference; discoloration compared with tetrasalt ([2]; 14 fragrances, four weeks of shelf aging at 45° C., visual and instrumental): less discoloration; ΔYB @ 45° C. ([2]; fragrance Q-26240): 5.04; ΔRG @ 45° C. ([2]; fragrance Q-26241): 3.76; ΔYB @ 45° C. ([2]; fragrance Q-26241): 7.13; ΔRG @ 45° C. ([2]; fragrance Q-26242): 6.54; ΔYB @ 45° C. ([2]; fragrance Q-26242): 9.77; ΔRG @ 45° C. ([2]; fragrance Quest Q-14072): 10.05; ΔYB @ 45° C. ([2]; fragrance Quest Q-14072): 9.61; ΔRG @ 45° C. ([2]; fragrance SM 25105D): 8.65; ΔYB @ 45° C. ([2]; fragrance SM 25105D): 8.57; ΔRG @ 45° C. ([2]; fragrance Takasago RM 1595): 10.51; ΔYB @ 45° C. ([2]; fragrance Takasago RM 1595): 10.02
aluminum zirconium tetrachlorohydrex [reference compound] | 52 | 9.48 | 11.94 | 4.67 | 7.12 | 4.69 | 7.45 | 5.55 | 9.69 | 6.48 | 8.63 | 18.73 | 20.27 | 16.50 | 16.28 | 8.67 | 11.51 | 8.24 | 12.12 | 8.68 | adverse experiences ([1]; in vivo): No adverse experiences; ΔYB @ 45° C. ([2]; fragrance Q-26240): 10.51; ΔRG @ 45° C. ([2]; fragrance Q-26241): 7.98; ΔYB @ 45° C. ([2]; fragrance Q-26241): 11.29; ΔRG @ 45° C. ([2]; fragrance Q-26242): 9.21; ΔYB @ 45° C. ([2]; fragrance Q-26242): 14.50; ΔRG @ 45° C. ([2]; fragrance Quest Q-14072): 14.66; ΔYB @ 45° C. ([2]; fragrance Quest Q-14072): 16.59; ΔRG @ 45° C. ([2]; fragrance SM 25105D): 9.49; ΔYB @ 45° C. ([2]; fragrance SM 25105D): 11.76; ΔRG @ 45° C. ([2]; fragrance Takasago RM 1595): 9.14; ΔYB @ 45° C. ([2]; fragrance Takasago RM 1595): 9.49
